{"source": "patent US5691311A", "about": "(Biogen, Inc., priority 1995, dated 1997)", "key": {"[1]": {"system": "pooled, normal human plasma", "assay": "Activated partial thromboplastin time (APTT) assay in plasma", "format": "biochemical", "conditions": "10 to 32,300 ng/ml", "text": "Hirulog-8 using pooled, normal human plasma (George King Biomedical, Overland Park, Kans.) and a Coag-A-Mate XC instrument (General Diagnostics, Organon Technica, Oklahoma City, Okla.). Activity was monitored using the activated partial thromboplastin time (APTT) assay with CaCl2 and phospholipid solutions obtained from the manufacturer."}, "[2]": {"target": "thrombin (Homo sapiens, UniProt P00734)", "conditions": "cited from earlier work"}}, "note": "Read-outs that look alike come from different tables or passages of the source.", "data": [{"substance": "hirudin", "values": [{"measurement": "maximal increase of APTT of plasma", "setting": "[1]", "result": "too high to be measured"}, {"measurement": "Kd", "setting": "[2]; 1:1 stoichiometric complex, read-out: Kd of hirudin binding to thrombin", "result": 0.02, "unit": "nM"}, {"measurement": "Kd", "setting": "[2]; site separate from the catalytic site (anion-binding exosite), read-out: Kd of hirudin for the low affinity site on thrombin", "result": 10, "unit": "nM"}]}]}
